Measurements taken from patent publication US20070213339A1 (Bayer Pharmaceuticals Corporation, priority 2004, published 2007).

The compounds below were run on Colo205 human colon carcinoma cell line (assay: In vitro tumor cell proliferation assay (MTS, CellTiter 96 Aqueous One Solution)). Conditions: COLO 205, Colo205 cells, 72 hours compound exposure, MTS absorbance at 490 nm, read-out: IC50 (concentration of test compound required to inhibit proliferation of 50% of the cells).
Assay type: cell-based
Method in brief: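 Proliferation measured as MTS tetrazolium reduction (490 nm) after 72 h compound exposure at 37 °C. Cells plated at 2000 per well in serum-supplemented RPMI-1640; duplicate 5-point dilutions topping out at 10-20 μM. Percent inhibition versus untreated and cell-free wells, IC50 derived by linear regression.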
An IC50 of 500 to 2000 nM was found for `O=C(O)c1cn(-c2cccc(CN3CCCCC3)c2)c2c(OC(F)(F)F)c(N3CCN(c4ncccn4)CC3)c(F)cc2c1=O` [Example 143, 6-fluoro-4-oxo-1-[3-(piperidin-1-yl-methyl)phenyl]-7-(4-pyrimidin-2-ylpiperazin-1-yl)-8-(trifluoromethoxy)-1,4-dihydroquinoline-3-carboxylic acid] in this work.
An IC50 of 2000 to 20000 nM was found for `O=C(O)c1cn(-c2cccc(CN3CCCCC3)c2)c2c(OC(F)(F)F)c(N3CCN(c4ccccc4F)CC3)c(F)cc2c1=O` [Example 144, 6-fluoro-7-[4-(2-fluorophenyl)piperazin-1-yl]-4-oxo-1-[3-(piperidin-1-ylmethyl)phenyl]-8-(trifluoromethoxy)-1,4-dihydroquinoline-3-carboxylic acid] in this work.
An IC50 of 500 to 2000 nM was found for `O=C(O)c1cn(-c2cccc(CN3CCCCC3)c2)c2c(OC(F)(F)F)c(N3CCN(c4cccc(Cl)c4)CC3)c(F)cc2c1=O` [Example 145, 7-[4-(3-chlorophenyl)piperazin-1-yl]-6-fluoro-4-oxo-1-[3-(piperidin-1-ylmethyl)phenyl]-8-(trifluoromethoxy)-1,4-dihydroquinoline-3-carboxylic acid] in this work.
For `O=C(O)c1cn(-c2ccc(CN3CCCC3)cc2)c2c(OC(F)(F)Cl)c(N3CCN(c4ccccn4)CC3)c(F)cc2c1=O` [Example 146, 8-[chloro(difluoro)methoxy]-6-fluoro-4-oxo-7-(4-pyridin-2-ylpiperazin-1-yl)-1-[4-(pyrrolidin-1-ylmethyl)phenyl]-1,4-dihydroquinoline-3-carboxylic acid], the IC50 was < 500 nM.
In the case of `O=C(O)c1cn(-c2ccc(CN3CCCC3)cc2)c2c(OC(F)(F)Cl)c(N3CCN(c4ccc(F)cc4)CC3)c(F)cc2c1=O` [Example 147, 8-[chloro(difluoro)methoxy]-6-fluoro-7-[4-(4-fluorophenyl)piperazin-1-yl]-4-oxo-1-[4-(pyrrolidin-1-ylmethyl)phenyl]1,4-dihydroquinoline-3-carboxylic acid], the IC50 is reported as < 500 nM.
`O=C(O)c1cn(-c2ccc(CN3CCCC3)cc2)c2c(OC(F)(F)Cl)c(N3CCN(c4ccc(Cl)cc4)CC3)c(F)cc2c1=O` [Example 148, 8-[chloro(difluoro)methoxy]-7-[4-(4-chlorophenyl)piperazin-1-yl]-6-fluoro-4-oxo-1-[4-(pyrrolidin-1-ylmethyl)phenyl]-1,4-dihydroquinoline-3-carboxylic acid] was tested, and the IC50 was < 500 nM.
`N#Cc1cccnc1N1CCN(c2c(F)cc3c(=O)c(C(=O)O)cn(-c4ccc(CN5CCCC5)cc4)c3c2OC(F)(F)Cl)CC1` [Example 149, 8-[chloro(difluoro)methoxy]-7-[4-(3-cyanopyridin-2-yl)piperazin-1-yl]-6-fluoro-4-oxo-1-[4-(pyrrolidin-1-ylmethyl)-phenyl]-1,4-dihydroquinoline-3-carboxylic acid] was tested, and the IC50 was < 500 nM.
An IC50 of 500 to 2000 nM was found for `Cc1ccc(N2CCN(c3c(F)cc4c(=O)c(C(=O)O)cn(-c5ccc(CN6CCCC6)cc5)c4c3OC(F)(F)Cl)CC2)c(C)c1` [Example 150, 8-[chloro(difluoro)methoxy]-7-[4-(2,4-dimethylphenyl)piperazin-1-yl]-6-fluoro-4-oxo-1-[4-(pyrrolidin-1-ylmethyl)phenyl]-1,4-dihydroquinoline-3-carboxylic acid] in this work.
`Cc1ccc(N2CCN(c3c(F)cc4c(=O)c(C(=O)O)cn(-c5ccc(CN6CCCC6)cc5)c4c3OC(F)(F)Cl)CC2)cc1C` [Example 151, 8-[chloro(difluoro)methoxy]-7-[4-(3,4-dimethylphenyl)piperazin-1-yl]-6-fluoro-4-oxo-1-[4-(pyrrolidin-1-ylmethyl)phenyl]-1,4-dihydroquinoline-3-carboxylic acid] was tested, and the IC50 was < 500 nM.
With `O=C(O)c1cn(-c2ccc(CN3CCCC3)cc2)c2c(OC(F)(F)Cl)c(N3CCN(c4ccccc4)CC3)c(F)cc2c1=O` [Example 152, 8-[chloro(difluoro)methoxy]-6-fluoro-4-oxo-7-(4-phenylpiperazin-1-yl)-1-[4-(pyrrolidin-1-ylmethyl)phenyl]-1,4-dihydroquinoline-3-carboxylic acid] the IC50 was < 500 nM.
For `CN(C)Cc1ccc(-n2cc(C(=O)O)c(=O)c3cc(F)c(N4CCN(c5ccccn5)CC4)c(OC(F)(F)Cl)c32)cc1` [Example 154, 8-[chloro(difluoro)methoxy]-1-{4-[(dimethylamino)methyl]phenyl}-6-fluoro-4-oxo-7-(4-pyridin-2-ylpiperazin-1-yl)-1,4-dihydroquinoline-3-carboxylic acid], the IC50 was < 500 nM.
With `CN(C)Cc1ccc(-n2cc(C(=O)O)c(=O)c3cc(F)c(N4CCN(c5ccc(F)cc5)CC4)c(OC(F)(F)Cl)c32)cc1` [Example 155, 8-[chloro(difluoro)methoxy]-1-{4-[(dimethylamino)methyl]phenyl}-6-fluoro-7-[4-(4-fluorophenyl)piperazin-1-yl]-4-oxo-1,4-dihydroquinoline-3-carboxylic acid] the IC50 was < 500 nM.
With `CN(C)Cc1ccc(-n2cc(C(=O)O)c(=O)c3cc(F)c(N4CCN(c5ccc(Cl)cc5)CC4)c(OC(F)(F)Cl)c32)cc1` [Example 156, 8-[chloro(difluoro)methoxy]-7-[4-(4-chlorophenyl)piperazin-1-yl]-1-{4-[(dimethylamino)methyl]phenyl}-6-fluoro-4-oxo-1,4-dihydroquinoline-3-carboxylic acid] the IC50 was < 500 nM.
An IC50 of 500 to 2000 nM was found for `CN(C)Cc1ccc(-n2cc(C(=O)O)c(=O)c3cc(F)c(N4CCN(c5ncccn5)CC4)c(OC(F)(F)Cl)c32)cc1` [Example 157, 8-[chloro(difluoro)methoxy]-1-{4-[(dimethylamino)methyl]phenyl}-6-fluoro-4-oxo-7-(4-pyrimidin-2-ylpiperazin-1-yl)-1,4-dihydroquinoline-3-carboxylic acid] in this work.
With `CN(C)Cc1ccc(-n2cc(C(=O)O)c(=O)c3cc(F)c(N4CCN(c5ncccc5C#N)CC4)c(OC(F)(F)Cl)c32)cc1` [Example 158, 8-[chloro(difluoro)methoxy]-7-[4-(3-cyanopyridin-2-yl)piperazin-1-yl]-1-{4-[(dimethylamino)methyl]phenyl}-6-fluoro-4-oxo-1,4-dihydroquinoline-3-carboxylic acid] the IC50 was < 500 nM.
`CCN(CC)Cc1ccc(-n2cc(C(=O)O)c(=O)c3cc(F)c(N4CCN(c5ccccn5)CC4)c(OC(F)(F)Cl)c32)cc1` [Example 159, 8-[chloro(difluoro)methoxy]-1-{4-[(diethylamino)methyl]phenyl}-6-fluoro-4-oxo-7-(4-pyridin-2-ylpiperazin-1-yl)-1,4-dihydroquinoline-3-carboxylic acid] was tested, and the IC50 was < 500 nM.
An IC50 of 500 to 2000 nM was found for `CCN(CC)Cc1ccc(-n2cc(C(=O)O)c(=O)c3cc(F)c(N4CCN(c5ncccn5)CC4)c(OC(F)(F)Cl)c32)cc1` [Example 160] in this work.
`CCN(CC)Cc1ccc(-n2cc(C(=O)O)c(=O)c3cc(F)c(N4CCN(c5ncccc5C#N)CC4)c(OC(F)(F)Cl)c32)cc1` [Example 161, 8-[chloro(difluoro)methoxy]-7-[4-(3-cyanopyridin-2-yl)piperazin-1-yl]-1-{4-[(diethylamino)methyl]phenyl}-6-fluoro-4-oxo-1,4-dihydroquinoline-3-carboxylic acid] was tested, and the IC50 was < 500 nM.
In the case of `CCN(CC)Cc1ccc(-n2cc(C(=O)O)c(=O)c3cc(F)c(N4CCN(c5ccccc5C#N)CC4)c(OC(F)(F)Cl)c32)cc1` [Example 162, 8-[chloro(difluoro)methoxy]-7-[4-(2-cyanophenyl)piperazin-1-yl]-1-{4-[(diethylamino)methyl]phenyl}-6-fluoro-4-oxo-1,4-dihydroquinoline-3-carboxylic acid], the IC50 is reported as < 500 nM.
In the case of `CCN(CC)Cc1ccc(-n2cc(C(=O)O)c(=O)c3cc(F)c(N4CCN(c5ccc(F)cc5)CC4)c(OC(F)(F)Cl)c32)cc1` [Example 163, 8-[chloro(difluoro)methoxy]-1-{4-[(diethylamino)methyl]phenyl}-6-fluoro-7-[4-(4-fluorophenyl)piperazin-1-yl]-4-oxo-1,4-dihydroquinoline-3-carboxylic acid], the IC50 is reported as < 500 nM.
In the case of `CCN(CC)Cc1ccc(-n2cc(C(=O)O)c(=O)c3cc(F)c(N4CCN(c5ccc(Cl)cc5)CC4)c(OC(F)(F)Cl)c32)cc1` [Example 164, 8-[chloro(difluoro)methoxy]-7-[4-(4-chlorophenyl)piperazin-1-yl]-1-{4-[(diethylamino)methyl]phenyl}-6-fluoro-4-oxo-1,4-dihydroquinoline-3-carboxylic acid], the IC50 is reported as < 500 nM.
With `CCN(C)Cc1ccc(-n2cc(C(=O)O)c(=O)c3cc(F)c(N4CCN(c5ncccn5)CC4)c(OC(F)(F)Cl)c32)cc1` [Example 165, 8-[chloro(difluoro)methoxy]-1-(4-{[ethyl(methyl)amino]methyl}phenyl)-6-fluoro-4-oxo-7-(4-pyrimidin-2-ylpiperazin-1-yl)-1,4-dihydroquinoline-3-carboxylic acid] the IC50 was < 500 nM.
In the case of `CCN(C)Cc1ccc(-n2cc(C(=O)O)c(=O)c3cc(F)c(N4CCN(c5ncccc5C#N)CC4)c(OC(F)(F)Cl)c32)cc1` [Example 166, 8-[chloro(difluoro)methoxy]-7-[4-(3-cyanopyridin-2-yl)piperazin-1-yl]-1-(4-{[ethyl(methyl)amino]methyl}phenyl)-6-fluoro-4-oxo-1,4-dihydroquinoline-3-carboxylic acid], the IC50 is reported as < 500 nM.
With `CCN(C)Cc1ccc(-n2cc(C(=O)O)c(=O)c3cc(F)c(N4CCN(c5ccc(F)cc5)CC4)c(OC(F)(F)Cl)c32)cc1` [Example 167, 8-[chloro(difluoro)methoxy]-1-(4-{[ethyl(methyl)amino]methyl}phenyl)-6-fluoro-7-[4-(4-fluorophenyl)piperazin-1-yl]-4-oxo-1,4-dihydroquinoline-3-carboxylic acid] the IC50 was < 500 nM.
`CCN(C)Cc1ccc(-n2cc(C(=O)O)c(=O)c3cc(F)c(N4CCN(c5ccc(Cl)cc5)CC4)c(OC(F)(F)Cl)c32)cc1` [Example 168, 8-[chloro(difluoro)methoxy]-7-[4-(4-chlorophenyl)piperazin-1-yl]-1-(4-{[ethyl(methyl)amino]methyl}phenyl)-6-fluoro-4-oxo-1,4-dihydroquinoline-3-carboxylic acid] was tested, and the IC50 was < 500 nM.
